From paper PMC6886798, “Expression of myeloid Src-family kinases is associated with poor prognosis in AML and influences Flt3-ITD kinase inhibitor acquired resistance” (PLoS ONE, 2019)

Legend:
VEGFR2 = target: T1, VEGFR2 (Homo sapiens, UniProt P35968); experiment: KINOMEscan; type: binding; details: 1.0 µM
T1 construct: DNA tag (qPCR barcode); purchased Eurofins/DiscoverX KINOMEscan scanMAX

PRP4 = target: T2, PRP4 (Homo sapiens, UniProt Q13523); experiment: KINOMEscan; type: binding; details: 1.0 µM
T2 construct: purchased Eurofins/DiscoverX KINOMEscan scanMAX
T2 sequence (Q13523 whole entry): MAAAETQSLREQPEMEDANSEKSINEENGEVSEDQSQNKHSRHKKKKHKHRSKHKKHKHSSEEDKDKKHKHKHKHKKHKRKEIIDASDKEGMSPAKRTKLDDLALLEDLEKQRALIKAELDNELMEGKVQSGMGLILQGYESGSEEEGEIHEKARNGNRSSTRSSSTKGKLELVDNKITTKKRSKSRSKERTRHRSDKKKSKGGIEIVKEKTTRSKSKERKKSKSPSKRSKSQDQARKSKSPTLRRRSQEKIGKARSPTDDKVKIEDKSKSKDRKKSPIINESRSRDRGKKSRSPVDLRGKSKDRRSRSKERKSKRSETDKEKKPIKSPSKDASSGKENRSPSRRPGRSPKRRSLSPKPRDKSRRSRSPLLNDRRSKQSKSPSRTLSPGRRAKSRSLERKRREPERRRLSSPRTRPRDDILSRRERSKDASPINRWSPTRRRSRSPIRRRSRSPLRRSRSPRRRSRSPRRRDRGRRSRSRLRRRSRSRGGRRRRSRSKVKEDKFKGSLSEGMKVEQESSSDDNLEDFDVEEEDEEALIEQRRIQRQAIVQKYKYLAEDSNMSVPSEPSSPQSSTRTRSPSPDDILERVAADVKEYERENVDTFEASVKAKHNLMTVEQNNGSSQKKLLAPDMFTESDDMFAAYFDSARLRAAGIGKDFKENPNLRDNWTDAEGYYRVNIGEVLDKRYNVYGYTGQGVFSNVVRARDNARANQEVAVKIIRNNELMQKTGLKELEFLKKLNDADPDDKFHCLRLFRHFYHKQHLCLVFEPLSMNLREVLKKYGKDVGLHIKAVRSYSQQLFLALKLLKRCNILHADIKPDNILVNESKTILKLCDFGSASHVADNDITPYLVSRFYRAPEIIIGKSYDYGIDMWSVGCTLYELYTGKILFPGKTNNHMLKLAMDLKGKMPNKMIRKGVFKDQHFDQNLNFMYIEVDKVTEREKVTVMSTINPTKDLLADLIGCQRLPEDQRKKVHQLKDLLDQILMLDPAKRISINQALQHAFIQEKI

HCK = target: T3, HCK (Homo sapiens, UniProt P08631); experiment: KINOMEscan; type: binding; details: 1.0 µM
T3 construct: purchased Eurofins/DiscoverX KINOMEscan scanMAX
T3 sequence (P08631 whole entry): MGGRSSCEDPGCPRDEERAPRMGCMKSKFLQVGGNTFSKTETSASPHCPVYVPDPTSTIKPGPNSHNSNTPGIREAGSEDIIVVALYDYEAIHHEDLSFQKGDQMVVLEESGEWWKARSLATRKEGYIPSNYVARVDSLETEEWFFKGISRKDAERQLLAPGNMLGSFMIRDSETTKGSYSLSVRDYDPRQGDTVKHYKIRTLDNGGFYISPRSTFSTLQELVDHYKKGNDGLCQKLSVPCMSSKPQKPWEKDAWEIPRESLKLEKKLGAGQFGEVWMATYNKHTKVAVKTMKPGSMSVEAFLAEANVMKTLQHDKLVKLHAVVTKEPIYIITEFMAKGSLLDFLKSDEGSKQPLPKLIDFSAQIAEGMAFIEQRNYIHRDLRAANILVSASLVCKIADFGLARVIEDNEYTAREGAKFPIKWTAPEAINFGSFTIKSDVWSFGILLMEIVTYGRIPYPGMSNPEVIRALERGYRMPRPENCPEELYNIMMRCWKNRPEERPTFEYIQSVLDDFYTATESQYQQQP

Fgr T338L = target: T4, Fgr T338L (Homo sapiens, UniProt P09769, T334L); experiment: Z'-LYTE in vitro kinase assay; type: biochemical; details: read-out: A-419259 IC50, Fig 5B, ATP at Km, mean ± SE, three independent determinations
T4 construct: Recombinant near-full-length kinases, consisting of the SH2, SH3 and kinase domains plus the negative regulatory tail; made in house; host or cells: E. coli BL21Star (DE3), co-expressed with Csk and PTP1B
Method: (§2) Assays were performed in quadruplicate in 384-well low volume, non-binding, black polystyrene microplates (Corning) according to the manufacturer’s instructions. Briefly, this assay measures phosphorylation of the Tyr2 peptide substrate which is tagged with coumarin and fluorescein on its N- and C-termini, respectively, to form a FRET pair. After the kinase reaction, a development step involves site-specific proteolytic cleavage of the unphosphorylated but not the phosphorylated peptide. […] Kinase reactions were run in 50 mM HEPES, pH 7.5, 10 mM MgCl2, 1 mM EGTA, and 0.01% BRIJ-35 (buffer supplied by the manufacturer). […] Following incubation for 1 h at ambient temperature, reactions were quenched by addition of the development protease, and coumarin and fluorescein fluorescence were measured 1 h later on a Molecular Devices SpectraMax M5 plate reader. […] For experiments with inhibitors, compounds were preincubated with kinase for 30 min prior to initiation of the reaction by the addition of ATP.

Hck T338F = target: T5, Hck T338F (Homo sapiens, UniProt P08631, T333F); experiment: Z'-LYTE in vitro kinase assay; type: biochemical
T5 construct: Recombinant near-full-length kinases, consisting of the SH2, SH3 and kinase domains plus the negative regulatory tail; made in house; host or cells: E. coli BL21Star (DE3), co-expressed with Csk and PTP1B
T5 sequence (P08631 78-526 T333F limits assumed): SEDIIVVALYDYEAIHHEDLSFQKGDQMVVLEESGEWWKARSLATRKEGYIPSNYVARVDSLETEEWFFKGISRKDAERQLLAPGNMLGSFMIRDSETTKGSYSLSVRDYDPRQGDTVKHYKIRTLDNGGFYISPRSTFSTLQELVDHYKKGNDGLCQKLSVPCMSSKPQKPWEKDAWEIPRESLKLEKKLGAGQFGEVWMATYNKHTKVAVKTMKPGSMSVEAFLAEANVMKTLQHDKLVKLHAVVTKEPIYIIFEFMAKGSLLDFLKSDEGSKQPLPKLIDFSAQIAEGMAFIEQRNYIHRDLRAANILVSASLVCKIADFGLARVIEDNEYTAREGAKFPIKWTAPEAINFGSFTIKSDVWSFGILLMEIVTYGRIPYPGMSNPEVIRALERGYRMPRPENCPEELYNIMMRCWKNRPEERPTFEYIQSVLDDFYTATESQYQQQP

EGFR(L747-T751del,Sins) = experiment: KINOMEscan; type: binding, human; details: 1.0 µM
Method: (§1) Kinase retention to the immobilized ligand is then measured using quantitative real-time PCR for each kinase-specific DNA barcode.

[1] = system: chemotherapy-resistant AML patient xenografts; parameters: method as in PMID 23596204; details: mice; cited from earlier work
CDC2L5 = CDC2L5 (Homo sapiens, UniProt Q14004); details: 1.0 µM
CDC2L5, sequence (Q14004 whole entry): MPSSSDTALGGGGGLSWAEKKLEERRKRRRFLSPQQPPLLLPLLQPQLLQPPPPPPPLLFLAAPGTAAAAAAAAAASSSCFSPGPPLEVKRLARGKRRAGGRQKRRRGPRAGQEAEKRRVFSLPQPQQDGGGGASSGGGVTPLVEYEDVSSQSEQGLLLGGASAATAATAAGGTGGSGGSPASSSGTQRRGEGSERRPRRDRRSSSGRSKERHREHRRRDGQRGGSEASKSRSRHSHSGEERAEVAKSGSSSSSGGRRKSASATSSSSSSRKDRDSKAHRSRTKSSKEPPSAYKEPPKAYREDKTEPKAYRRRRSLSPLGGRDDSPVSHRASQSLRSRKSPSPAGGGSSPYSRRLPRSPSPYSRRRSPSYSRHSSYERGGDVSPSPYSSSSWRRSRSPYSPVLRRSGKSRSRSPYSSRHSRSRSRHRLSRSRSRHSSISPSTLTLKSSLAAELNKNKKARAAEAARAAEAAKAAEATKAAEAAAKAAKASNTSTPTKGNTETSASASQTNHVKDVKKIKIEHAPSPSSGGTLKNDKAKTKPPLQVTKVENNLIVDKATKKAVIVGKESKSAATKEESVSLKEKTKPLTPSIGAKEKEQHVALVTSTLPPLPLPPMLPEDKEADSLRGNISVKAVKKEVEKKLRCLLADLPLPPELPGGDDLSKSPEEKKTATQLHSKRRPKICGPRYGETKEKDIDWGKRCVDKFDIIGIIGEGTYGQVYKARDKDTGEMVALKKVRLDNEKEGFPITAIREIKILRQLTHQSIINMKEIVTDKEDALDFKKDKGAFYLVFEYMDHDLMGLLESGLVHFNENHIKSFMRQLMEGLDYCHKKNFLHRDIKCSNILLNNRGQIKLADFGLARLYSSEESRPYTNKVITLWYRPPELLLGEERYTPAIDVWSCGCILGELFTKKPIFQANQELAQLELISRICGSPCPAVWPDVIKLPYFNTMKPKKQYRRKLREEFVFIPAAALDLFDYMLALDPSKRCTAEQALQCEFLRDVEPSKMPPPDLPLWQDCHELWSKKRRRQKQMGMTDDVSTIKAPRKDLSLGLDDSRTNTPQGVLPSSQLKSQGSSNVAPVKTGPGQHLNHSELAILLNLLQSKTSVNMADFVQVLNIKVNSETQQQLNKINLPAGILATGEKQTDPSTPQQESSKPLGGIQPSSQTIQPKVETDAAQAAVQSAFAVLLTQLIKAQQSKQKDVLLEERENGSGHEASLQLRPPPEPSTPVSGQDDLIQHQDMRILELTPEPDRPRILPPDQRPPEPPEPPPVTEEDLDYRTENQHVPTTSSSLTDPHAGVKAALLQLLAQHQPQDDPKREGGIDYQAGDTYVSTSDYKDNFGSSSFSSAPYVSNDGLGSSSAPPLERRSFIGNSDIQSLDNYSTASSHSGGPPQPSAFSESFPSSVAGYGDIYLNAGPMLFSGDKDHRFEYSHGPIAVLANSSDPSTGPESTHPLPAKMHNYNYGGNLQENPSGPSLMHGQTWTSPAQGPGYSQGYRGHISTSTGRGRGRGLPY
Method: as §1

PKNB(M.tuberculosis) = PKNB(M.tuberculosis) (Mycobacterium tuberculosis, UniProt P9WI81); details: 1.0 µM
Method: as §1

Fgr T338F = target: T6, Fgr T338F (Homo sapiens, UniProt P09769, T334F); experiment: Z'-LYTE in vitro kinase assay; type: biochemical
T6 construct: Recombinant near-full-length kinases, consisting of the SH2, SH3 and kinase domains plus the negative regulatory tail; made in house; host or cells: E. coli BL21Star (DE3), co-expressed with Csk and PTP1B
Method: as §2

Lyn T338M = target: T7, Lyn T338M (Homo sapiens, UniProt P07948, T319M); experiment: Z'-LYTE in vitro kinase assay; type: biochemical; details: read-out: A-419259 IC50, Fig 5B, ATP at Km, mean ± SE, three independent determinations
T7 construct: Recombinant near-full-length kinases, consisting of the SH2, SH3 and kinase domains plus the negative regulatory tail; made in house; host or cells: E. coli BL21Star (DE3), co-expressed with Csk and PTP1B
T7 sequence (P07948 63-512 T319M limits assumed): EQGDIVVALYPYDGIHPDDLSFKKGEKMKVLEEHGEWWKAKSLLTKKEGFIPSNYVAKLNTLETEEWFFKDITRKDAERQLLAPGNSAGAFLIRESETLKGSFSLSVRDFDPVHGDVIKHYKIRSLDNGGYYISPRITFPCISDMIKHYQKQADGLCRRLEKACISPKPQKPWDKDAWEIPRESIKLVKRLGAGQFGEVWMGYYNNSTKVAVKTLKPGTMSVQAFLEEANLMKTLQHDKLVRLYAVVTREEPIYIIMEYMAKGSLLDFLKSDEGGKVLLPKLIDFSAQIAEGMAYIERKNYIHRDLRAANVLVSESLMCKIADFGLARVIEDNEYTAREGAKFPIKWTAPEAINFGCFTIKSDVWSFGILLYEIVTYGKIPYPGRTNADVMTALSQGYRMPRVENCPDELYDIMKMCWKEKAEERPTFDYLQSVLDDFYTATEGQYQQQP

Flt3-D835Y kinase domain = target: T8, Flt3-D835Y kinase domain (Homo sapiens, UniProt P36888, D835Y); experiment: Z'-LYTE in vitro kinase assay; type: biochemical; details: Flt3 D835Y mutant
T8 construct: Recombinant purified Flt3 wild-type, Flt3-ITD and Flt3-D835Y kinase domains were purchased from ThermoFisher; purchased ThermoFisher
Method: as §2

Hck T338M = target: T9, Hck T338M (Homo sapiens, UniProt P08631, T333M); experiment: Z'-LYTE in vitro kinase assay; type: biochemical
T9 construct: Recombinant near-full-length kinases, consisting of the SH2, SH3 and kinase domains plus the negative regulatory tail; made in house; host or cells: E. coli BL21Star (DE3), co-expressed with Csk and PTP1B
T9 sequence (P08631 78-526 T333M limits assumed): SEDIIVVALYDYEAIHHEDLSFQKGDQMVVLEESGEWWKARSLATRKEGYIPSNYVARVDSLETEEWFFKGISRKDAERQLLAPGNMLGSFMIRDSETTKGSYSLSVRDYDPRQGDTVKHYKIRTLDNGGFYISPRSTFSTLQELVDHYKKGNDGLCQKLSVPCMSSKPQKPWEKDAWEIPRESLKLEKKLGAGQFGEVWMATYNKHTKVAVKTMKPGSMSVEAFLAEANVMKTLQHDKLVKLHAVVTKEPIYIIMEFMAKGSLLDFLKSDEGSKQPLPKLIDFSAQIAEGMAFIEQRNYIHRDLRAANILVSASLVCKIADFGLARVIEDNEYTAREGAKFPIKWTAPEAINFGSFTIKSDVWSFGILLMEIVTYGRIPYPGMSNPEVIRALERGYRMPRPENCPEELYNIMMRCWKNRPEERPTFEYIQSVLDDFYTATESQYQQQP

Hck T338L = target: T10, Hck T338L (Homo sapiens, UniProt P08631, T333L); experiment: Z'-LYTE in vitro kinase assay; type: biochemical
T10 construct: Recombinant near-full-length kinases, consisting of the SH2, SH3 and kinase domains plus the negative regulatory tail; made in house; host or cells: E. coli BL21Star (DE3), co-expressed with Csk and PTP1B
T10 sequence (P08631 78-526 T333L limits assumed): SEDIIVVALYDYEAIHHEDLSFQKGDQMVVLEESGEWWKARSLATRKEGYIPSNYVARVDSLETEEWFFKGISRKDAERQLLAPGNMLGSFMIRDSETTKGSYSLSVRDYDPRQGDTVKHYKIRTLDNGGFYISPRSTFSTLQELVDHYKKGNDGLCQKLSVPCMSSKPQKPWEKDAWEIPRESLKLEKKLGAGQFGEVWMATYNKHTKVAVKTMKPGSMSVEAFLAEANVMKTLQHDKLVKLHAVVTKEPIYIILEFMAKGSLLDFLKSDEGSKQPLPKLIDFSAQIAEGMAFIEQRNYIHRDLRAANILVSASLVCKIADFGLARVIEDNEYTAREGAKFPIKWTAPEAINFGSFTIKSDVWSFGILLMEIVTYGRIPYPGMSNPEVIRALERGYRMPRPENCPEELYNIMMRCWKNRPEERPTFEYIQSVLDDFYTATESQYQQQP

[2] = system: Flt3-ITD N676S in TF-1 cells; experiment: Flt3 immunoprecipitation, anti-phosphotyrosine immunoblot; type: cell-based, human; details: vs Flt3-ITD; overnight
Method: Immunoprecipitation reactions were incubated overnight at 4 °C.

Lyn T338L = target: T11, Lyn T338L (Homo sapiens, UniProt P07948, T319L); experiment: Z'-LYTE in vitro kinase assay; type: biochemical; details: read-out: A-419259 IC50, Fig 5B, ATP at Km, mean ± SE, three independent determinations
T11 construct: Recombinant near-full-length kinases, consisting of the SH2, SH3 and kinase domains plus the negative regulatory tail; made in house; host or cells: E. coli BL21Star (DE3), co-expressed with Csk and PTP1B
T11 sequence (P07948 63-512 T319L limits assumed): as the sequence (P07948 63-512 T319M limits assumed) above, with M257L counted along it

CN1CCN(C2CCC(n3cc(-c4ccc(Oc5ccccc5)cc4)c4c(N)ncnc43)CC2)CC1 (centres unmarked) [A-419259]
% Control (VEGFR2): 24% | % Control (PRP4): 98% | % Control (HCK): 1.9% | IC50 (Fgr T338L): 218.4 ± 1.1 nM | reduction of kinase sensitivity to A-419259 (Hck T338F; Hck gatekeeper threonine to phenylalanine, vs wild-type): ~5 fold | IC50 (Hck T338F; read-out: A-419259 IC50, Fig 5B, Hck T338F, ATP at Km, mean ± SE, three independent determinations): 201 ± 1 nM | % Control (EGFR(L747-T751del,Sins)): 16% | effect on chemotherapy-resistant AML patient xenografts [1]: completely eliminates | % Control (CDC2L5): 77% | % Control (PKNB(M.tuberculosis)): 82% | resistance to A-419259 (Fgr T338F; Fgr gatekeeper phenylalanine substitution, vs wild-type): ~5 fold | IC50 (Fgr T338F; read-out: A-419259 IC50, Fig 5B, Fgr T338F, ATP at Km, mean ± SE, three independent determinations): 282.9 ± 1.1 nM | IC50 (Lyn T338M): 127.8 ± 1 nM | resistance to A-419259 in in vitro kinase assays (Flt3-D835Y kinase domain): about 6 fold | reduction of kinase sensitivity to A-419259 (Hck T338M; Hck gatekeeper threonine to methionine, vs wild-type): 2 fold | IC50 (Hck T338M; read-out: A-419259 IC50, Fig 5B, Hck T338M, ATP at Km, mean ± SE, three independent determinations): 94.9 ± 1.1 nM | effect of substitution on kinase sensitivity to A-419259 (Hck T338L; Hck gatekeeper threonine to leucine, vs wild-type): without an effect | IC50 (Hck T338L; read-out: A-419259 IC50, Fig 5B, Hck T338L, ATP at Km, mean ± SE, three independent determinations): 41 ± 1 nM | sensitivity of phosphotyrosine content to A-419259 [2]: significantly reduced sensitivity | IC50 (Lyn T338L): 129.7 ± 1.1 nM
